Data taken from patent publication US20070128217A1 (priority 2003, published 2007).

Assays:
[1] = tested on: antibodies in sera from SARS patients (sera 1a, 1b, 2, 6, 37, 62, London, SARS-yellow, SARS-green); format: binding, human; set-up: Binding of serum 6 to linear peptides of protein X1 of SARS-CoV Urbani / Binding of serum 37 to linear peptides of protein X1 of SARS-CoV Urbani / Binding of serum 6 to looped/cyclic peptide (PEPSCAN-ELISA) / Binding of serum 37 to looped/cyclic peptide (PEPSCAN-ELISA) / Binding of serum 37 to looped/cyclic peptides of protein X1 of SARS-CoV Urbani / Binding of serum 6 to linear peptides of protein X2 / Binding of serum 37 to linear peptides of protein X2 / Binding of serum 37 to looped/cyclic peptides of protein X2 of SARS-CoV Urbani / Binding of serum 6 to linear peptides of protein M of SARS-CoV Urbani / Binding of serum 37 to linear peptides of protein M of SARS-CoV Urbani / Binding of serum 6 to looped/cyclic peptides of protein M of SARS-CoV Urbani / Binding of serum 37 to looped/cyclic peptides of protein M of SARS-CoV Urbani / Binding of serum 6 to linear peptides of protein X3 of SARS-CoV Urbani / Binding of serum 37 to linear peptides of protein X3 of SARS-CoV Urbani / Binding of serum 37 to looped/cyclic peptides of protein X3 of SARS-CoV Urbani / Binding of serum 6 to linear peptides of protein X4 of SARS-CoV Urbani / Binding of serum 37 to linear peptides of protein X4 of SARS-CoV Urbani / Binding of serum 37 to looped/cyclic peptides of protein X4 of SARS-CoV Urbani / Binding of serum 6 to linear peptides of protein X5 of SARS-CoV Urbani / Binding of serum 37 to linear peptides of protein X5 of SARS-CoV Urbani / Binding of serum 37 to looped/cyclic peptides of protein X5 of SARS-CoV Urbani / Binding of serum 6 to linear peptides of protein N of SARS-CoV Urbani / Binding of serum 37 to linear peptides of protein N of SARS-CoV Urbani / Binding of serum 6 to linear peptide (PEPSCAN-ELISA) / Binding of serum 1a to looped/cyclic peptides of protein N of SARS-CoV Urbani / Binding of serum 1b to looped/cyclic peptides of protein N of SARS-CoV Urbani / Binding of serum 2 to looped/cyclic peptides of protein N of SARS-CoV Urbani / Binding of serum 6 to looped/cyclic peptides of protein N of SARS-CoV Urbani / Binding of serum 37 to looped/cyclic peptides of protein N of SARS-CoV Urbani / Binding of serum 62 to looped/cyclic peptides of protein N of SARS-CoV Urbani / Binding of serum London to looped/cyclic peptides of protein N of SARS-CoV Urbani / Binding of serum SARS-green to looped/cyclic peptides of protein N of SARS-CoV Urbani: unit not given here
[2] = tested on: control sera (pooled serum of ten healthy LUMC hospital workers; commercial negative donor pooled serum from the Dutch bloodbank); format: binding, human; set-up: Binding of Control serum LUMC to linear peptides / Binding of Control serum Blood-bank to linear peptides / Binding of Control serum LUMC to looped peptides / Binding of Control Serum Blood-Bank to Looped peptides / Binding of Control serum LUMC to linear peptides of the protein M of SARS-CoV Urbani / Binding of Control serum Blood-bank to linear peptides of the protein M of SARS-CoV Urbani / Binding of Control serum LUMC to looped peptides of the protein M of SARS-CoV Urbani / Binding of Control Serum Blood-Bank to Looped peptides of the protein M of SARS-CoV Urbani: unit not given here
[3] = tested on: rabbit serum obtained by immunizing a rabbit with the SARS-CoV strain Frankfurt 1; format: binding; set-up: Binding of a rabbit serum to linear peptides / Binding of a rabbit serum to looped peptides / Rabbit serum linear peptides / Rabbit serum looped peptides / Binding of a rabbit serum to linear peptides of protein N of SARS-CoV Urbani (Rabbit serum linear peptides) / Binding of a rabbit serum to looped/cyclic peptides of protein N of SARS-CoV Urbani (Rabbit serum looped peptides): unit not given here

| Sequence | Binding of serum 1a to linear peptides of protein X1 of SARS-CoV Urbani [1] | Binding of serum 1a to looped/cyclic peptide (PEPSCAN-ELISA) [1] | Binding of serum 1b to linear peptides of protein X1 of SARS-CoV Urbani [1] | Binding of serum 1b to looped/cyclic peptide (PEPSCAN-ELISA) [1] | Binding of serum 2 to linear peptides of protein X1 of SARS-CoV Urbani [1] | Binding of serum 2 to looped/cyclic peptide (PEPSCAN-ELISA) [1] | Binding of serum 6 to linear peptides of protein X1 of SARS-CoV Urbani [1] | Binding of serum 6 to looped/cyclic peptide (PEPSCAN-ELISA) [1] | Binding of serum 37 to linear peptides of protein X1 of SARS-CoV Urbani [1] | Binding of serum 37 to looped/cyclic peptide (PEPSCAN-ELISA) [1] | Binding of serum 62 to linear peptides of protein X1 of SARS-CoV Urbani [1] | Binding of serum 62 to looped/cyclic peptide (PEPSCAN-ELISA) [1] | Binding of serum London to linear peptides of protein X1 of SARS-CoV Urbani [1] | Binding of serum London to looped/cyclic peptide (PEPSCAN-ELISA) [1] | Binding of serum SARS-green to linear peptides of protein X1 of SARS-CoV Urbani [1] | Binding of serum SARS-green to looped/cyclic peptide (PEPSCAN-ELISA) [1] | Binding of serum SARS-yellow to linear peptides of protein X1 of SARS-CoV Urbani [1] | Binding of serum SARS-yellow to looped/cyclic peptide (PEPSCAN-ELISA) [1] | Binding of Control Serum Blood-Bank to Looped peptides [2] | Binding of Control serum Blood-bank to linear peptides [2] | other results |
| --- | --- | --- | --- | --- | --- | --- | --- | --- | --- | --- | --- | --- | --- | --- | --- | --- | --- | --- | --- | --- | --- |
| IYSHLLLVAAGMEAQ | 0.6 | 0.5 | 0.5 | 0.4 | 0.5 | 0.3 | 0.4 | 0.3 | 0.6 | 0.5 | 0.6 | 0.5 | 0.3 | 0.2 | 0.2 | 0.2 | 0.3 | 0.2 | 0.4 | 0.5 | Binding of Control serum LUMC to linear peptides [2]: 0.5; Binding of Control serum LUMC to looped peptides [2]: 0.5; Binding of a rabbit serum to linear peptides [3]: 0.1; Binding of a rabbit serum to looped peptides [3]: 0.4 |
| KCKSKNPLLYDANYF | 0.7 | 0.7 | 0.4 | 0.5 | 0.5 | 0.4 | 0.5 | 0.4 | 0.6 | 0.8 | 0.5 | 0.7 | 0.2 | 0.3 | 0.2 | 0.3 | 0.4 | 0.5 | 0.7 | 0.6 | Binding of Control serum LUMC to linear peptides [2]: 0.5; Binding of Control serum LUMC to looped peptides [2]: 0.7; Binding of a rabbit serum to linear peptides [3]: 0.2; Binding of a rabbit serum to looped peptides [3]: 0.6 |
